Experiment: xn = mol fraction of the nth substance listed

O=S(=O)([N-]S(=O)(=O)C(F)(F)F)C(F)(F)F.[Li+] + CC[n+]1ccn(C)c1.O=S(=O)([O-])C(F)(F)F + O
Details | electrical conductivity, 323 K [S/m] | electrical conductivity, 333 K [S/m] | viscosity, 313.15 K [mPa·s] | viscosity, 323 K [mPa·s] | viscosity, 323.15 K [mPa·s] | viscosity, 333 K [mPa·s] | viscosity, 333.15 K [mPa·s] | viscosity, 343.15 K [mPa·s] | viscosity, 353.15 K [mPa·s] | viscosity, 363.15 K [mPa·s]
100 kPa, x1 = 0.2745, x2 = 0.3509 | – | – | – | – | 22.1 | – | 16.5 | 12.7 | 10 | 7.98
100 kPa, x1 = 0.3106, x2 = 0.3509 | – | – | – | – | 28.7 | – | 21.2 | 16.1 | 12.6 | 10
100 kPa, x1 = 0.3509, x2 = 0.3509 | – | – | – | – | 37.6 | – | 27.2 | 19.6 | 15.1 | 11.9
100 kPa, x1 = 0.3868, x2 = 0.3509 | – | – | – | – | 49.3 | – | 34.1 | 25.1 | 19 | 14.8
100 kPa, x1 = 0.4189, x2 = 0.3509 | – | – | – | – | 63.9 | – | 44 | 31.6 | 23.6 | 18.1
100 kPa, x1 = 0.4478, x2 = 0.3509 | – | – | – | – | 92.9 | – | 56.7 | 39.9 | 29.2 | 22.1
100 kPa, x1 = 0.474, x2 = 0.3509 | – | – | 191 | – | 120 | – | 80 | 51.1 | 36.7 | 27.3
100 kPa, x1 = 0.4978, x2 = 0.3509 | – | – | 255 | – | 155 | – | 102 | 64.1 | 45.9 | 33.8
100 kPa, x1 = 0.5195, x2 = 0.3509 | – | – | 413 | – | 239 | – | 150 | 91.5 | 58 | 41.6
101 kPa, x1 = 0.2649, x2 = 0.2649 | 1.38 | 1.76 | – | 20.4 | – | 15.3 | – | – | – | –
101 kPa, x1 = 0.4189, x2 = 0.2649 | 0.4 | 0.56 | – | 87.4 | – | 58 | – | – | – | –
101 kPa, x1 = 0.5195, x2 = 0.3509 | 0.16 | 0.24 | – | 243 | – | 149 | – | – | – | –

Source: the CheMixHub ionic liquid set
